Where two headings read alike, the source gives them in different places.
Key:
[1] = Solubility/miscibility of aromatic substances, vitamins A and E and β-carotene in natural substances used as solvents; format: physicochemical
[2] = Solubility of aromatic substances and the vitamins A and E in filter hardeners; details: for solubility in hardener TEGDA: hardener: TEGDA (triethylene glycol diacetate)
[3] = test system: Salmonella typhimurium, strain TA 98; experiment: Ames test (TA98): antimutagenic effect of added substances on mutagenicity of cigarette smoke condensate; format: cell-based; details: graphical representation in figure
Method: To detect this antimutagenic action, the Ames test (loc.cit.) was carried out as a meaningful rapid test.
It was ensured in this process that work was carried out in a concentration range which was not toxic for the bacteria.

[4] = test system: Salmonella typhimurium, strain TA 98; experiment: Ames test with S9 activation: smoke condensate of experimental cigarettes with cloves, cinnamon sticks or eugenol; format: cell-based; details: additions to cut tobacco
Method: Five versions of filter cigarettes which differ in the composition of the final mixture according to Table 6 and have the same tobacco base mixture were prepared in the same format and same cigarette weight (940 mg). The cloves or cinnamon sticks employed were moistened with steam, rolled and cut before mixing with tobacco.
The experimental cigarettes were smoked under standard conditions (see Example 1).

Row | SMILES | solubility in cinnamaldehyde as a solvent ([1]; solvent: cinnamaldehyde) [% by weight] | solubility in eugenol as a solvent [1] [% by weight] | solubility in jasminealdehyde as a solvent ([1]; solvent: jasminealdehyde) [% by weight] | solubility in hardener triacetin [2] [% by weight] | mutagenicity of cigarette smoke condensate on addition of the substance [3] | also measured
1 | Cc1ccc2oc(=O)ccc2c1 [6-Methylcoumarin] | – | – | – | – | – | solubility in cinnamaldehyde as a solvent [1]: > 10 % by weight; solubility in jasminealdehyde as a solvent [1]: > 10 % by weight
2 | CCOc1cc(C=O)ccc1O [Ethylvanillin] | > 10 | > 10 | > 10 | > 10 | – | solubility in vitamin E acetate as a solvent [1]: < 1 % by weight; solubility in hardener TEGDA [2]: > 10 % by weight; solubility in hardener eugenol [2]: > 10 % by weight
3 | CC1=C(/C=C/C(C)=C/C=C/C(C)=C/CO)C(C)(C)CCC1 [Vitamin A, retinol] | – | – | – | – | – | solubility in cinnamaldehyde as a solvent [1]: > 10 % by weight; solubility in jasminealdehyde as a solvent [1]: > 10 % by weight
4 | Cc1c(C)c2c(c(C)c1OC(=O)CCC(=O)O)CC[C@@](C)(CCC[C@H](C)CCC[C@H](C)CCCC(C)C)O2 [Vitamin E succinate, tocopherol succinate] | > 10 | > 10 | > 10 | < 1 | – | solubility in hardener TEGDA [2]: < 1 % by weight; solubility in hardener eugenol [2]: 10 % by weight
5 | Cc1c(C)c2c(c(C)c1O)CCC(C)(CCCC(C)CCCC(C)CCCC(C)C)O2 (stereo not drawn) [Vitamin E, α-tocopherol] | – | – | – | > 10 | – | –
6 | O=C(O)/C=C/c1ccc(O)c(O)c1 [caffeic acid, Caffeic acid] | – | – | – | – | reduction of the mutagenicity | –
7 | COc1cc(/C=C/C(=O)CC(=O)/C=C/c2ccc(O)c(OC)c2)ccc1O [curcumin, Curcumin] | – | – | – | – | reduction of the mutagenicity | –
8 | C=CCc1ccc(O)c(OC)c1 [eugenol, Eugenol] | – | – | – | – | reduction of the mutagenicity | mutagenic effect of the smoke condensate (in words) [4]: decrease the mutagenic effect of the smoke condensate
9 | COc1cc2ccc(=O)oc2cc1O [scopoletin, 7-hydroxy-6-methoxycoumarin] | – | – | – | – | reduction of the mutagenicity | –
10 | CC1=C(/C=C/C(C)=C/C=C/C(C)=C/C=C/C=C(C)/C=C/C=C(C)/C=C/C2=C(C)CCCC2(C)C)C(C)(C)CCC1 [β-carotene] | > 1 | < 1 | < 1 | – | – | solubility in vitamin E acetate as a solvent [1]: < 1 % by weight

Reference: patent US5944026A, “Tobacco products or materials resembling tobacco products containing natural substances having an antioxidative effect and processes for the preparation thereof” (priority 1994, dated 1999)
